Six molecules from patent publication US20260070917A1, “CYCLIN DEPENDENT KINASE DEGRADERS AND METHODS OF USE THEREOF” (Differentiated Therapeutics Inc, priority 2023, published 2026) can be followed below.

Assay type in all cases: cell-based
Assay [1] has as its target T1, CDK2 (Homo sapiens, UniProt P24941).
T1 construct: host or cells: HEK293-CDK2-Hibit
The experiment in a line: HiBit Assay Protocol for CDK2 (HIBIT protein quantification, degradation). The settings on record: HEK293-CDK2-Hibit cells, compound treatment for 6 hours; for DC50: ABS DC50. A digest of the protocol: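 DC50 comes from a fitted curve of remaining CDK2-HiBiT luminescence, referenced to DMSO-treated cells and medium-only wells. HEK293-CDK2-HiBiT cells, plated the previous night, received compounds in a 10-point, 3-fold series for 6 h before lysis with LgBiT-containing Nano-Glo HiBiT reagent.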
Background: HiBiT is a short tag that completes a luciferase, so light tracks the accessible tagged protein.

Assay [2] deals with T2, CCNE1 (Homo sapiens, UniProt P24864).
T2 construct: host or cells: HEK293-CCNE1-Hibit
The experiment in a line: HiBit Assay Protocol for CCNE1 (HIBIT protein quantification, degradation). The settings on record: HEK293-CCNE1-Hibit cells, compound treatment for 6 hours. Summed up:
(§1)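 Degradation readout: lytic Nano-Glo HiBiT luminescence after 6 h exposure of HEK293-CCNE1-HiBiT cells to 10-point, 3-fold serial dilutions. Signal was scaled between medium-only and DMSO-treated wells, and DC50 came from curve fits.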

The target of assay [3] is T3, CCNE1 (Homo sapiens, UniProt P24864+P24941).
T3 construct: host or cells: HEK293-CCNE1-Hibit
The assay is described as above. The conditions noted are these: HEK293-CCNE1-Hibit cells, compound treatment for 6 hours, ABS DC50. Summed up:
as §1

Assay [4] has as its target T4, CDK9 (Homo sapiens, UniProt P50750).
T4 construct: host or cells: HEK293-CDK9-Hibit
The experiment in a line: HiBit Assay Protocol for CDK9 (HIBIT protein quantification, degradation). The settings on record: HEK293-CDK9-Hibit cells, compound treatment for 6 hours; for Dmax: 6 h, read-out: CDK9 HIBIT Protein Quantification Maximum. A digest of the protocol:
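Degradation read-out: luminescence after lytic HiBiT/LgBiT detection in HEK293-CDK9-HiBiT cells exposed 6 h to 10-point, 3-fold compound dilutions. Signal scaled between 0.1% DMSO-treated cells and medium alone; DC50 fitted from the curve.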

T2 sequence (P24864 whole entry): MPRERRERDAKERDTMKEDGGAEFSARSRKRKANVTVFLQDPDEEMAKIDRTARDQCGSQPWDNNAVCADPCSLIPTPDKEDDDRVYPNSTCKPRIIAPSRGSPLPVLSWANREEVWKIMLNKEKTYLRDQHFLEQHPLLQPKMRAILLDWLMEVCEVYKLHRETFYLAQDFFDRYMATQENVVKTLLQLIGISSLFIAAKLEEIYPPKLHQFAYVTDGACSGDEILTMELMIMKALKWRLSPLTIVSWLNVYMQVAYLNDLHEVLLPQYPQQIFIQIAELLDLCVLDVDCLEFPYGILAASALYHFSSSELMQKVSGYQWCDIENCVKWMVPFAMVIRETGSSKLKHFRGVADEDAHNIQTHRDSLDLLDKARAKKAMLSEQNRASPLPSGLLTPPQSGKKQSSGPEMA
T3 sequence (P24864 whole entry, one chain of several): as the sequence (P24864 whole entry) above
T4 sequence (P50750 whole entry): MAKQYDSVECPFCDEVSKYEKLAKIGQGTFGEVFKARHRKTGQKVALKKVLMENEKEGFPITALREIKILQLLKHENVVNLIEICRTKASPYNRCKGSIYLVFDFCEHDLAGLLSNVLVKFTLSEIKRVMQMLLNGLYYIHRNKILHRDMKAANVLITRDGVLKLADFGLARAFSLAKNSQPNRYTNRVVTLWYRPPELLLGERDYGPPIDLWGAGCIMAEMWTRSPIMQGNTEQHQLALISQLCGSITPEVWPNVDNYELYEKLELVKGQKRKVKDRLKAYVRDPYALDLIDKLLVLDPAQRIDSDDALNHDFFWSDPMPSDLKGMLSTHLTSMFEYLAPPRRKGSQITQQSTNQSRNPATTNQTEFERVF

Broadly, the DC50 is the concentration giving 50% degradation. A high value points to degradation only at high concentration. For `CC(c1cc(S(=O)(=O)N2CC[C@H](Nc3ncc4c(n3)N([C@@H]3CCC[C@@H](O)C3)C(=O)C43CC3)[C@H](F)C2)ccc1F)N1CCC(c2ccc3c(N4CCC(=O)NC4=O)nn(C)c3c2)CC1` (single isomer, unassigned) [Compound 200, 1-(6-{1-[(1R*)-1-{2-Fluoro-5-[(3R,4S)-3-fluoro-4-{7′-[(1R,3R)-3-hydroxycyclohexyl]-6′-oxospiro[cyclopropane-1,5′-pyrrolo[2,3-d]pyrimidin]-2′-ylamino}piperidin-1-ylsulfonyl]phenyl}ethyl]piperidin-4-yl}-1-methylindazol-3-yl)-1,3-diazinane-2,4-dione], the “CDK2 HIBIT Protein Quantification Maximum” value in assay [1] is given as 89%. The DC50 in assay [1] is 3.81 nM; in assay [3], 9.88 nM. Also, in assay [2], the “CCNE1 HIBIT Protein Quantification Maximum” value worked out at 61%. In addition, the Dmax in assay [4] came to 13%.
Turning to `C[C@@H](c1cccc(S(=O)(=O)N2CCC(Nc3ncc4c(n3)N([C@@H]3CCC[C@@H](O)C3)C(=O)C43CC3)CC2)c1)N1CCC(c2ccc3c(N4CCC(=O)NC4=O)nn(C)c3c2)CC1` (single isomer, unassigned) [Compound 152], the “CDK2 HIBIT Protein Quantification Maximum” value in assay [1] came out at 88%. For the same molecule, the DC50 in assay [1] was 4.22 nM; in assay [3], 23.6 nM; in assay [4] (ABS DC50), 2170 nM. The “CCNE1 HIBIT Protein Quantification Maximum” value in assay [2] is 53%. Also, the Dmax in assay [4] worked out at 52%.
As for `C[C@@H](C1CC1)N1C(=O)C2(CC2)c2cnc(NC3CCN(S(=O)(=O)c4cccc(CN5CCC(c6ccc7c(N8CCC(=O)NC8=O)nn(C)c7c6)CC5)c4)CC3)nc21` [Compound 164, 1-[6-(1-{[3-(4-{7′-[(1S)-1-Cyclopropylethyl]-6′-oxospiro[cyclopropane-1,5′-pyrrolo[2,3-d]pyrimidin]-2′-ylamino}piperidin-1-ylsulfonyl)phenyl]methyl}piperidin-4-yl)-1-methylindazol-3-yl]-1,3-diazinane-2,4-dione], the “CDK2 HIBIT Protein Quantification Maximum” value in assay [1] is 85%. The DC50 in assay [1] stood at 2.63 nM; in assay [3] it was 6.18 nM. In assay [2], the “CCNE1 HIBIT Protein Quantification Maximum” value was determined as 54%. Besides, the Dmax in assay [4] came out at 12%.
Taken in the same sequence, the figures for `Cn1nc(N2CCC(=O)NC2=O)c2ccc(C3CCN(Cc4cccc(S(=O)(=O)N5CC[C@@H](Nc6ncc7c(n6)N([C@@H]6CCC[C@@H](O)C6)C(=O)C76CC6)[C@H](F)C5)c4)CC3)cc21` [Compound 158] were 80%, 2.64 nM, 5.96 nM, 56% and 13%.
As to `C[C@H]1CCC[C@H]1N1C(=O)C2(CC2)c2cnc(NC3CCN(S(=O)(=O)N(C)CCCN4CCC(c5cccc6c5n(C)c(=O)n6C5CCC(=O)NC5=O)CC4)CC3)nc21` (stereo partly drawn) [Compound 13, N-(3-{4-[1-(2,6-Dioxopiperidin-3-yl)-3-methyl-2-oxo-1,3-benzodiazol-4-yl]piperidin-1-yl}propyl)-N-methyl-4-{7′-[(1R,2S)-2-methylcyclopentyl]-6′-oxospiro[cyclopropane-1,5′-pyrrolo[2,3-d]pyrimidin]-2′-ylamino}piperidine-1-sulfonamide], the “CDK2 HIBIT Protein Quantification Maximum” value in assay [1] is 79%. Moreover, the DC50 in assay [1] was found to be 17.3 nM; in assay [3], 17.6 nM. Besides, the “CCNE1 HIBIT Protein Quantification Maximum” value in assay [2] worked out at 52.8%.
With `CC1CCCC1N1C(=O)C2(CC2)c2cnc(NC3CCN(S(=O)(=O)N4CC5(CCCN(C6CCN(c7cccc8c7n(C)c(=O)n8C7CCC(=O)NC7=O)C6)C5)C4)CC3)nc21` (centres unmarked) [Compound 137], in assay [1], the “CDK2 HIBIT Protein Quantification Maximum” value worked out at 52% and the DC50 came to 3.25 nM. The “CCNE1 HIBIT Protein Quantification Maximum” value in assay [2] was 38%. Also, in assay [4], the Dmax stood at 8%.
